Test results from patent US20180311268A1, “RESPONSE-GUIDED HCV THERAPY” (EMORY UNIVERSITY, priority 2015, published 2018).
Where “and” joins values, the source holds several entries; their conditions need not be identical. Equal values may be shown once.

Legend:
[1] = test system: HCV genotype 1; details: added to sofosbuvir and ledipasvir, 6 week triple-drug regimens; cited from earlier work
[2] = Plasma concentrations of anti-HCV drugs by LC-MS/MS; assay type: in vivo, human
Experimental: Plasma samples from patients infected with HCV were stored in aliquots at −80° C. until further processing. Viral RNA was extracted and the genome sequenced using an Applied Biosystems 3730×1 DNA analyser as previously described.^21 Data were analysed with the ABL-DeepChek-HCV 1.4 software (ABL SA, Luxembourg, Luxembourg). To confirm compliance, a liquid chromatography-tandem mass spectrometry (LC-MS/MS) method was developed to detect and quantify the anti-HCV drug concentrations in plasma collected from each patient. Briefly, blood samples were collected from 25 patients at 8 h, 24 h, and 48 h after initiating treatment. 50 μL of plasma was extracted with 3 mL of ethyl acetate containing abacavir (as an internal standard). The supernatant was collected, air dried, then reconstituted in 2 mmol/L ammonium acetate solution with 75% methanol. Five target compounds were simultaneously monitored and quantified by LC-MS/MS in the multiple reaction monitoring mode, including sofosbuvir (m/z 530.2/243.2), daclatasvir (m/z 739.5/339.3), ledipasvir (m/z 889.4/637.3), asunaprevir (m/z 748.4/648.4), and simeprevir (m/z 750.4/315.2). A Dionex Ultimate 3000 HPLC system (Thermo Scientific, Waltham, Mass., USA) coupled with an AB SCIEX API5000 triple quadrupole mass spectrometer (AB SCIEX, Framingham, Mass., USA) was used for analysis.
Fifty μL plasma was extracted with 3 mL of ethyl acetate containing abacavir (as internal standard). The supernatant was collected, air-dried then reconstituted in 2 mM ammonium acetate solution with 75% methanol. Five target compounds were simultaneously monitored and quantified by LC-MS/MS in the multiple reaction monitoring (MRM) mode, including sofosbuvir (m/z 530.2à243.2), daclatasvir (m/z 739.5à339.3), ledipasvir (m/z 889.4à637.3), asunaprevir (m/z 748.4à648.4) and simeprevir (m/z 750.4à315.2). SOF concentrations were measured with a wide range from BLOQ to 3,174 ng/mL; LDV and DCV were in the range of BLOQ to 469 ng/mL and 101 to 3045 ng/mL; ASV and SMV were in the range of BLOQ to 626 ng/mL and 30.6 to 693 ng/mL, respectively.

| Structure (SMILES) | Patients with SVR12 [1] | Range of measured plasma concentrations ([2]; all subjects, 8, 24 and 48 hr after first treatment, BLOQ = below LOQ) | concentration at 8 h ([2]; human, in vivo, individual subjects on SOF + DCV + ASV Then SOF + LDV, >3 weeks treatment, 8 h) | concentration at 24 h ([2]; human, in vivo, individual subjects on SOF + DCV + ASV Then SOF + LDV, >3 weeks treatment, 24 h) | concentration at 48 h ([2]; human, in vivo, individual subjects on SOF + DCV + ASV Then SOF + LDV, >3 weeks treatment, 48 h) | concentration at 24 h ([2]; human, in vivo, individual subjects on SOF + DCV + SMV, 3 weeks treatment, 24 h) | concentration at 8 h ([2]; human, in vivo, individual subjects on SOF + LDV + ASV Then SOF + LDV, >3 weeks treatment, 8 h) | Plasma concentration ([2]; individual subjects on SOF + DCV + ASV, 3 weeks treatment, 8 h) | Plasma concentration ([2]; individual subjects on SOF + DCV + ASV, 3 weeks treatment, 24 h) | Plasma concentration ([2]; individual subjects on SOF + DCV + ASV, 3 weeks treatment, 48 h) | Plasma concentration ([2]; individual subjects on SOF + DCV + SMV, 3 weeks treatment, 8 h) | Plasma concentration ([2]; individual subjects on SOF + DCV + SMV, 3 weeks treatment, 24 h) | Plasma concentration ([2]; individual subjects on SOF + DCV + SMV, 3 weeks treatment, 48 h) | Plasma concentration ([2]; individual subjects on SOF + LDV + ASV Then SOF + LDV, >3 weeks treatment, 8 h) | Plasma concentration ([2]; individual subjects on SOF + LDV + ASV Then SOF + LDV, >3 weeks treatment, 24 h) | Plasma concentration ([2]; individual subjects on SOF + LDV + ASV, 3 weeks treatment, 8 h after initiating treatment) | Plasma concentration ([2]; individual subjects on SOF + LDV + ASV, 3 weeks treatment, 24 h) | Plasma concentration ([2]; individual subjects on SOF + LDV + ASV, 3 weeks treatment, 48 h) |
| --- | --- | --- | --- | --- | --- | --- | --- | --- | --- | --- | --- | --- | --- | --- | --- | --- | --- | --- |
| CC[C@@H]1C[C@]1(NC(=O)[C@@H]1C[C@@H](Oc2cc(-c3csc(NC(C)C)n3)nc3c(Cl)c(OCCN4CCOCC4)ccc23)CN1C(=O)[C@@H](NC(=O)O[C@@H]1C[C@@H]2C[C@@H]2C1)C(C)(C)C)C(=O)O [GS-9451] | 95% | – | – | – | – | – | – | – | – | – | – | – | – | – | – | – | – | – |
| CC1=CC[C@H](C(=O)N(c2cc(C#CC(C)(C)C)sc2C(=O)O)[C@H]2CC[C@](O)(CO[C@H]3CCOC3)CC2)CC1 [GS-9669] | 95% | – | – | – | – | – | – | – | – | – | – | – | – | – | – | – | – | – |
| CC(C)OC(=O)[C@H](C)N[P@](=O)(OC[C@H]1O[C@@H](n2ccc(=O)[nH]c2=O)[C@](C)(F)[C@@H]1O)Oc1ccccc1 [SOF, Sofosbuvir] | – | ≤ 3,174 ng/mL | 9.99 ng/mL | 11.2 ng/mL | 631 ng/mL | 2410 ng/mL | 0.67 ng/mL | 0.55 ng/mL and 0.28 ng/mL and 2.03 ng/mL and 13.5 ng/mL and 0.47 ng/mL | 1.09 ng/mL and 0.28 ng/mL and 0.27 ng/mL and 192 ng/mL and 256 ng/mL | 1.41 ng/mL and 0.80 ng/mL and 7.55 ng/mL and 292 ng/mL and 12.7 ng/mL and 1807 ng/mL | 2.35 ng/mL and 0.26 ng/mL and 14.7 ng/mL and 0.42 ng/mL and 1.45 ng/mL | 2114 ng/mL and 1923 ng/mL | 3174 ng/mL and 1796 ng/mL and 1549 ng/mL and 1227 ng/mL | 0.58 ng/mL | 202 ng/mL and 1591 ng/mL and 0.61 ng/mL | 7.17 ng/mL and 5.52 ng/mL and 4.22 ng/mL and 18.2 ng/mL and 4.54 ng/mL and 10.4 ng/mL | 0.94 ng/mL and 8.92 ng/mL and 1.23 ng/mL and 2.13 ng/mL and 1.17 ng/mL and 0.99 ng/mL | 4.76 ng/mL and 6.35 ng/mL and 0.64 ng/mL and 1.59 ng/mL and 0.92 ng/mL and 0.81 ng/mL |
